This is an account of results in patent US20140295012A1, “LATENT HUMAN IMMUNODEFICIENCY VIRUS REACTIVATION” (priority 2011, published 2014).

Test [1] concerns latently HIV-1 infected primary T cells. Nature of the test: Reactivation of latent HIV-1 infection in primary T cells (GFP). It counts as cell-based. The settings on record: 24 hours. The procedure:
Latently HIV-1 infected primary T cells were treated for 24 hours with aclacinomycin (ACM) or dactinomycin (ActD), or with the anti-CD3 monoclonal antibody (mAb) OKT3. Reactivation levels were determined as a percentage of GFP-positive cells 24 hours after stimulation. Viability of the cells correlates with the size of the symbol.
To determine if aclacinomycin or dactinomycin were capable of reactivating a latent HIV-1 infection in primary T cells, latently HIV-1 infected primary T cells were treated with aclacinomycin or dactinomycin or with the anti-CD3 monoclonal antibody OKT3 for 24 hours. Reactivation of the latent HIV-1 infection was observed by increasing levels of GFP fluorescence.

In test [2] the test system is latently HIV-1 infected CA5 T cells. The class given is cell-based. The settings on record: CA5 cells pretreated with increasing concentrations. The procedure:
Infection levels in the cell cultures were monitored by flow cytometric analysis of EGFP expression. Flow cytometric analysis was performed on a GUAVA EasyCyte (Millipore; Billerica, Mass.), or a LSRII (Becton & Dickinson; Franklin Lakes, N.J.).
Bacterial growth. Bacteria from various sources were isolated on TSA II agar plates containing 5% sheep blood. Bacterial isolates were then grown in RPMI 1640 medium supplemented with 10% FBS. After two days of incubation at 37° C. bacteria were pelleted and resuspended in RPMI medium to an optical density (OD600) of 8, aliquoted and frozen at −80° C. Unless otherwise indicated, Massilia timonae was grown in RPMI 1640 medium supplemented with 10% FBS. Typically, medium was inoculated with Massilia timonae from frozen stocks to an OD600 of 0.01. After 48 hours at 37° C., the culture was centrifuged at 3200 g to separate bacteria from the culture medium. Bacteria were resuspended in fresh medium to an OD600 of 8 and frozen to be used as references and stock cultures. The supernatant was then centrifuged at 10,000 g for 20 minutes and sterilized by passage through a 0.2 μm PVDF filter with low protein binding ability. HRF activity was determined by its ability to reactivate latent HIV-1 infection in CA5 cells. Only supernatants of which 6 μl reactivated infection in at least 60% of CA5 cells were used to study HRF properties.
Flow cytometry. Infection levels in the cell cultures were monitored by flow cytometric (FCM) analysis of GFP expression. FCM analysis was performed on a GUAVA EasyCyte (GUAVA Technologies, Inc.; Millipore; Billerica, Mass.) and a BD FACSCalibur or a LSRII (Becton & Dickinson; Franklin Lakes, N.J.). Cell sorting experiments were performed using a FACSAria™ Flow Cytometer (Becton&Dickinson). Data analysis was performed using either CellQuest (Becton&Dickinson) or GUAVA Express (GUAVA Technologies, Inc.).
To identify the optimal concentration of dactinomycin, CA5 T cells were pretreated with increasing concentrations of dactinomycin (0.0001 and 1 μg/ml), and then left untreated or stimulated with a sub-optimal concentration of HRF or TNF-α. Representative results for stimulation with HRF are depicted in FIG. 3. The chosen HRF concentration has only minimal HIV-1 reactivating effect by itself (15% reactivation over background). Twenty four hours after activator addition, levels of HIV-1 reactivation were determined as the percentage of GFP-positive cells using flow cytometric analysis, which allowed for the simultaneous determination of cell viability. […] Optimal pretreatment time was 18 hours. Maximum reactivation effects were seen 48 hours after stimulation.

The target of test [3] is T1, positive transcription elongation factor (P-TEFb), a complex of CDK9 and Cyclin T1 (UniProt P50750 1-372; O60563 1-726).
T1 construct: also called CDK9/CycT1
T1 sequence (P50750 whole entry, chain 1 of 2): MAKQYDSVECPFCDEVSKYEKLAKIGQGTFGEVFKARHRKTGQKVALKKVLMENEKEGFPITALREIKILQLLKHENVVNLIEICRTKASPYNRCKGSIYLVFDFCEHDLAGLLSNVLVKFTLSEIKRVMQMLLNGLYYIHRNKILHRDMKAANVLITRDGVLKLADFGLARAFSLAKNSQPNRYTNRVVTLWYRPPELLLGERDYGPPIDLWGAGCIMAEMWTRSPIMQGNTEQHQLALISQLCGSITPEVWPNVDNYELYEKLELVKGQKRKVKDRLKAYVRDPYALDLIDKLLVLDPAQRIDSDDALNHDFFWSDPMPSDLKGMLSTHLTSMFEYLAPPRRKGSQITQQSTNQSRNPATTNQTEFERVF
T1 sequence (O60563 whole entry, chain 2 of 2): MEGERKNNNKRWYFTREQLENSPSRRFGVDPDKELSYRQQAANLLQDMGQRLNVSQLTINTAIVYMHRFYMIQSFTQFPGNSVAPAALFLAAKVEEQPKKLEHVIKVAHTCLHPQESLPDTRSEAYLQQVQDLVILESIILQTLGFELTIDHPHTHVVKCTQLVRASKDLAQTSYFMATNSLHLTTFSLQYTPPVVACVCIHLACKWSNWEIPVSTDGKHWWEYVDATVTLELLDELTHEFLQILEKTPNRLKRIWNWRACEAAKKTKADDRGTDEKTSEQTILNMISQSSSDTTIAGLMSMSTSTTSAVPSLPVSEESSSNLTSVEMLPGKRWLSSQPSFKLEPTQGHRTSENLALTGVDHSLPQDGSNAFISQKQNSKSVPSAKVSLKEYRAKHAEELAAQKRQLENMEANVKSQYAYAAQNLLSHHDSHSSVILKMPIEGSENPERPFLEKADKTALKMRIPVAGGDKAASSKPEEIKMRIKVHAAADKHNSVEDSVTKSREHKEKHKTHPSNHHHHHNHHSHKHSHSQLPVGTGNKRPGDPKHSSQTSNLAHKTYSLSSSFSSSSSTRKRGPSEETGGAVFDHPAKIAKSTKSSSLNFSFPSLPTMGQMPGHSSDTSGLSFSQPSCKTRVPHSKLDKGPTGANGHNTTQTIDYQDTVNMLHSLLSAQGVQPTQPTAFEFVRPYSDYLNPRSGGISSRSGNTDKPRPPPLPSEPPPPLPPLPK
Nature of the test: glycerol gradient (10-45%) sedimentation of J89GFP cell lysates, Western blot of the fractions with anti-CDK9 and anti-HEXIM-1. Background: A western blot detects proteins with antibodies after separation by electrophoresis.
Experimental: Each gradient fraction was separated on a 10% SDS-PAGE gel and transferred by Western blot. […] Band densities were determined using ImageJ and are presented as relative band density. […] Band densities were determined using ImageJ and are presented as relative band density.
Fractions were resolved on 10% SDS-PAGE and transferred to polyvinylidene fluoride membrane.
Each gradient fraction was separated on a SDS-PAGE gel and subjected to Western blotting.

With `CC[C@@]1(O)C[C@H](O[C@H]2C[C@H](N(C)C)[C@H](O[C@H]3C[C@H](O)[C@H](O[C@H]4CCC(=O)[C@H](C)O4)[C@H](C)O3)[C@H](C)O2)c2c(cc3c(c2O)C(=O)c2c(O)cccc2C3=O)[C@H]1C(=O)OC` [aclacinomycin], in test [1], the “reactivation of latent HIV-1 infection” value was “capable of reactivating latent HIV-1 infections”. Moreover, the “priming effect on HIV-1 reactivation by sub-optimal dose of HRF” value in test [2] is reported as “strong priming effect”.

B1: HEXIM-1 (other, UniProt O94992 1-359, looked up)
chain: MAEPFLSEYQHQPQTSNCTGAAAVQEELNPERPPGAEERVPEEDSRWQSRAFPQLGGRPGPEGEGSLESQPPPLQTQACPESSCLREGEKGQNGDDSSAGGDFPPPAEVEPTPEAELLAQPCHDSEASKLGAPAAGGEEEWGQQQRQLGKKKHRRRPSKKKRHWKPYYKLTWEEKKKFDEKQSLRASRIRAEMFAKGQPVAPYNTTQFLMDDHDQEEPDLKTGLYSKRAAAKSDDTSDDDFMEEGGEEDGGSDGMGGDGSEFLQRDFSETYERYHTESLQNMSKQELIKEYLELEKCLSRMEDENNRLRLESKRLGGDDARVRELELELDRLRAENLQLLTENELHRQQERAPLSKFGD
For B1, the binding result in test [3] is given as “binds”.
